Source: patent US9487489B2, “Halogen-substituted pyrazole derivatives as pest-control agents” (BAYER CROPSCIENCE AKTIENGESELLSCHAFT, priority 2013, dated 2016)

Columns and labels:
[1] = tested on: adult dog ticks (Rhipicephalus sanguineus); test: Rhipicephalus sanguineus in vitro contact test with adult brown dog ticks (T2); settings: after 48 h
Description: T2. Rhipicephalus sanguineus-in vitro Contact Tests with Adult Brown Dog Ticks
(§1) For the coating of the test tubes, initially 9 mg of active compound are dissolved in 1 ml of acetone p.a. and then diluted with acetone p.a. to the desired concentration. By turning and rocking on an orbital shaker (2 h of rocking rotation at 30 rpm), 250 μl of the solution are distributed homogeneously on the internal walls and the floor of a 25 ml test tube. At 900 ppm active compound solution and 44.7 cm^2 internal surface, an area dose of 5 μg/cm^2 is achieved for homogeneous distribution.
After evaporation of the solvent, the tubes are populated with 5-10 adult dog ticks (Rhipicephalus sanguineus), sealed with a perforated plastic lid and incubated in a horizontal position in the dark at room temperature and ambient humidity. After 48 h, the efficacy is determined. To this end, the ticks are knocked to the floor of the tube and incubated on a hotplate at 45-50° C. for at most 5 min Ticks which remain motionless on the floor or move in an uncoordinated manner such that they are not able to deliberately avoid the heat by climbing upwards are considered to be dead or moribund.
An efficacy of 100% means that all ticks were dead or moribund. 0% efficacy means that none of the ticks had been damaged.

[2] = tested on: adult cat fleas (Ctenocephalides felis); test: Ctenocephalides felis in vitro contact test with adult cat fleas (T1); settings: after 48 h
Description: T1. Ctenocephalides felis—in vitro Contact Tests with Adult Cat Fleas
as §1
After evaporation of the solvent, the tubes are populated with 5-10 adult cat fleas (Ctenocephalides felis), sealed with a perforated plastic lid and incubated in a horizontal position at room temperature and ambient humidity. After 48 h, the efficacy is determined. To this end, the test tubes are stood upright and the fleas are knocked to the floor of the tube. Fleas which remain motionless on the floor or move in an uncoordinated manner are considered to be dead or moribund.
An efficacy of 100% means that all fleas were dead or moribund. 0% efficacy means that none of the fleas had been damaged.

[3] = tested on: larvae of the mustard beetle (Phaedon cochleariae); test: Phaedon cochleariae spray test (PHAECO); type: in vivo; settings: Chinese cabbage leaf discs, after 7 days
Description: H. Phaedon cochleariae-spray Test (PHAECO)
Solvents: 78.0 parts by weight of acetone
(§2) • 1.5 parts by weight of dimethylformamide Emulsifier: alkylaryl polyglycol ether
(§3) To produce a suitable preparation of active compound, 1 part by weight of active compound is dissolved using the stated parts by weight of solvent and made up with water comprising an emulsifier concentration of 1000 ppm until the desired concentration is reached. To produce further test concentrations, the preparation is diluted with emulsifier-containing water.
After 7 days, the efficacy in % is determined. 100% means that all of the beetle larvae have been killed; 0% means that none of the beetle larvae have been killed.

[4] = tested on: greenhouse red spider mite (Tetranychus urticae); test: Tetranychus urticae spray test, OP-resistant (TETRUR); type: in vivo; settings: bean leaf discs, after 6 days
Description: J. Tetranychus urticae-spray Test, OP-Resistant (TETRUR)
(§4) Solvent: 78.0 parts by weight of acetone
as §2, §3
Discs of bean leaves (Phaseolus vulgaris) which are infested by all stages of the greenhouse red spider mite (Tetranychus urticae) are sprayed with an active compound preparation of the desired concentration.
After 6 days, the efficacy in % is determined. 100% means that all of the spider mites have been killed; 0% means that none of the spider mites have been killed.

[5] = tested on: caterpillars of the armyworm (Spodoptera frugiperda); test: Spodoptera frugiperda spray test (SPODFR); type: in vivo; settings: maize leaf discs, after 7 days
Description: I. Spodoptera frugiperda-spray Test (SPODFR)
as §4, §2, §3
Leaf discs of maize (Zea mays) are sprayed with an active compound preparation of the desired concentration and, after drying, populated with caterpillars of the armyworm (Spodoptera frugiperda).
After 7 days, the efficacy in % is determined. 100% means that all of the caterpillars have been killed; 0% means that none of the caterpillars have been killed.

[6] = logP determination by HPLC on a reversed-phase column (C18), EEC Directive 79/831 Annex V.A8; type: physicochemical; settings: HPLC on reversed-phase column (C18), acetonitrile/water with formic acid, EEC Directive 79/831 Annex V.A8
Description: (§5) ^a) Note regarding the determination of the logP values and mass detection: The determination of the given logP values was carried out in accordance with EEC Directive 79/831 Annex V.A8 by HPLC (High Performance Liquid Chromatography) on a reversed-phase column (C18). Agilent 1100 LC system; 50*4.6 Zorbax Eclipse Plus C18 1.8 micron; mobile phase A: acetonitrile (0.1% formic acid); mobile phase B: water (0.09% formic acid); linear gradient from 10% acetonitrile to 95% acetonitrile in 4.25 min, then 95% acetonitrile for a further 1.25 min; oven temperature 55° C.; flow rate: 2.0 ml/min. Mass detection is carried out via an Agilend MSD system.
as §5, with “^*)” for “^a)”

[7] = tested on: engorged adult female cattle ticks (Boophilus microplus); test: Boophilus microplus injection test (BOOPMI Inj); type: in vivo; settings: application rate 20 μg/animal; injection into abdomen; assessed after 7 days
Description: C. Boophilus microplus-injection Test (BOOPMI Inj)
Solvent: dimethyl sulphoxide
To produce a suitable preparation of active compound, 10 mg of active compound are mixed with 0.5 ml of solvent, and the concentrate is diluted with solvent to the desired concentration.
1 μl of the active compound solution is injected into the abdomen of 5 engorged adult female cattle ticks (Boophilus microplus). The animals are transferred into dishes and kept in a climate-controlled room.
The activity is assessed after 7 days by laying of fertile eggs. Eggs whose fertility is not visible from the outside are stored in a climate-controlled cabinet until the larvae hatch after about 42 days. An efficacy of 100% means that none of the ticks has laid any fertile eggs; 0% means that all eggs are fertile.

Row | SMILES | efficacy (dead or moribund ticks) ([1]; application rate 1 μg/cm^2) [%] | efficacy (dead or moribund ticks) ([1]; application rate 5 μg/cm^2) [%] | efficacy (dead or moribund fleas) ([2]; application rate 5 μg/cm^2) [%] | efficacy in % ([3]; application rate 100 g/ha) [%] | efficacy in % ([4]; application rate 100 g/ha) [%] | efficacy in % ([5]; application rate 100 g/ha) [%] | logP [6] | further results
1 | Cn1nc(C(F)(F)C(F)(F)F)c(C(F)(F)F)c1-n1cc(-c2ccc(Cl)c(C(=O)NC3CCC3)c2)cn1 [Ic-143] | 100 | 100 | 100 |  |  |  |  | efficacy (dead or moribund fleas) ([2]; application rate 1 μg/cm^2): 100%
2 | CONC(=O)c1cc(-c2cnn(-c3c(C(F)(F)F)c(C(F)(F)C(F)(F)F)nn3C)c2)ccc1Cl [Ic-155] | 100 | 100 | 100 |  |  |  |  | efficacy (dead or moribund fleas) ([2]; application rate 1 μg/cm^2): 100%
3 | Cn1nc(C(F)(F)C(F)(F)F)c(C(F)(F)F)c1-n1cc(-c2cc(C(=O)NC3CC3)c(F)c(F)c2F)cn1 [Ic-201] | 100 | 100 |  |  |  |  |  | 
4 | CC(NC(=O)c1cc(-c2cnn(-c3c(C(F)(F)F)c(C(F)(F)C(F)(F)F)nn3C)c2)ccc1Cl)C(F)(F)F (stereo not drawn) [Ic-110] |  |  | 100 | 100 | 100 | 100 | 4.23 | 
5 | Cc1cc(NC(=O)c2cc(-c3cnn(-c4c(C(F)(F)F)c(C(F)(F)C(F)(F)F)nn4C)c3)ccc2Cl)no1 [Ic-148] | 80 |  | 100 |  |  |  |  | 
6 | CC(C)CNC(=O)c1cc(-c2cnn(-c3c(C(F)(F)F)c(C(F)(F)C(F)(F)F)nn3C)c2)ccc1Cl [Ic-142] | 80 | 100 | 100 |  |  |  |  | efficacy in % ([3]; application rate 500 g/ha): 100%; efficacy in % ([4]; application rate 500 g/ha): 100%; efficacy in % ([5]; application rate 500 g/ha): 100%; efficacy (dead or moribund fleas) ([2]; application rate 1 μg/cm^2): 100%
7 | CCOC1(NC(=O)c2cc(-c3cnn(-c4c(C(F)(F)F)c(C(F)(F)C(F)(F)F)nn4C)c3)ccc2Cl)CC1 [Ic-176] |  |  |  |  |  |  | 4.08 | efficacy in % ([3]; application rate 500 g/ha): 100%; efficacy in % ([4]; application rate 500 g/ha): 100%; efficacy in % ([5]; application rate 500 g/ha): 100%
8 | N#CC1(NC(=O)c2cc(-c3cnn(-c4c(C(F)(F)F)c(C(F)(F)C(F)(F)F)nn4-c4ncccc4Cl)c3)ccc2Cl)CC1 [Ic-15] |  |  |  | 100 |  |  | 4.15 | efficacy (laying of fertile eggs) [7]: 80%
9 | Cn1nc(C(F)(F)C(F)(F)F)c(C(F)(F)F)c1-n1cc(-c2ccc(Cl)c(C(=O)NC3(C#N)CSC3)c2)cn1 [Ic-128] |  |  |  | 100 | 100 | 100 | 4.38 | 
10 | Cn1nc(C(F)(F)C(F)(F)F)c(C(F)(F)F)c1-n1cc(-c2ccc(Cl)c(C(=O)NC3CCC3[S+](C)[O-])c2)cn1 (stereo not drawn) [Ic-125] |  |  |  | 100 | 100 | 83 | 3.17 | 
11 | Cn1nc(C(F)(F)F)c(C(F)(F)F)c1-n1cc(-c2ccc(Cl)c(C(=O)NCCF)c2)cn1 [Ic-168] |  |  |  | 100 | 100 | 83 | 3.24 | 
12 | Cn1nc(C(F)(F)F)c(C(F)(F)F)c1-n1cc(-c2ccc(Cl)c(C(=O)NCC(F)(F)F)c2)cn1 [Ic-169] |  |  |  | 100 | 100 | 100 | 3.71 | 
13 | Cn1nc(C(F)(F)F)c(C(F)(F)F)c1-n1cc(-c2ccc(Cl)c(C(=O)NC3CC3F)c2)cn1 (stereo not drawn) [Ic-177] |  |  |  | 100 | 100 | 100 | 3.41 | 
